Bounds are passed on as bounds.

IC50 data for 29 molecules are collected here from patent US7566712B2, “Biaryl piperazinyl-pyridine analogues” (Neurogen Corporation, priority 2003, dated 2009).

T1 sequence (Q8NER1 whole entry): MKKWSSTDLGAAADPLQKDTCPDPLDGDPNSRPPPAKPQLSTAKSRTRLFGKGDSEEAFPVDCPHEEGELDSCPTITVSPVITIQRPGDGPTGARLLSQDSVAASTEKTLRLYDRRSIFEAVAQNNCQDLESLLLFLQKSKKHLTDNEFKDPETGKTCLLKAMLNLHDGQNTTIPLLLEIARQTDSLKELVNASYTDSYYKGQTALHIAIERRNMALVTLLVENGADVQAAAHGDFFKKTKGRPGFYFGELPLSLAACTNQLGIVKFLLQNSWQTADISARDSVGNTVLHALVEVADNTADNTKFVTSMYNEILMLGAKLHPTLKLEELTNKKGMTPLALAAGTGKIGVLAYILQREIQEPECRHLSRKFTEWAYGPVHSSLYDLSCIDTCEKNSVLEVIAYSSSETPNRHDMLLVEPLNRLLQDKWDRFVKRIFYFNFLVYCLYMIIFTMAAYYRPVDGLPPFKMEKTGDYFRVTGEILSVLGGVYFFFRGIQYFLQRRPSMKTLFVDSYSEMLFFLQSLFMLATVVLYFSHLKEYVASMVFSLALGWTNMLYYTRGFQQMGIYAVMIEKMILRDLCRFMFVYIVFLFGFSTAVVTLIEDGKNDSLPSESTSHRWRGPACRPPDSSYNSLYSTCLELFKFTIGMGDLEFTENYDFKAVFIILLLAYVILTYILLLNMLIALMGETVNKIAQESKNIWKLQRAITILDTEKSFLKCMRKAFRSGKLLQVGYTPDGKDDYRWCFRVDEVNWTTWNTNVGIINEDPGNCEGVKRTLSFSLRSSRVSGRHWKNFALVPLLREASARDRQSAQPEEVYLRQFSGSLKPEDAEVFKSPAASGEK

One assay has as its target T1, human capsaicin receptor (Homo sapiens, UniProt Q8NER1).
T1 construct: pBK-CMV expression construct encoding the full length human capsaicin receptor; expressed in transfected cells
Put plainly: Calcium mobilization assay, determination of antagonist activity (Example 6). It is filed as cell-based. The note with it: Table II; IC50 determined as described in Example 6. The method in brief:
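HEK293 clonal lines stably expressing full-length human capsaicin receptor, loaded with Fluo-3 AM in KRH buffer pH 7.4, 1–2 h at 37 °C. Compounds (1–5 μM final) preincubated 0.5–6 h at room temperature, then capsaicin at its EC50 added. FLIPR/Fluoroskan calcium signal; IC50 as 50% decrease of capsaicin response.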
(In general: Calcium flux is commonly read through the fluorescence of an indicator in the cells.)
One may read the IC50 as the concentration that gives 50% inhibition. With `COc1cccc(-c2cc(N3CCN(c4ncccc4C(F)(F)F)C[C@H]3C)nc(N3CCOCC3)n2)c1` [Example 525, 4-(4-(3-methoxyphenyl)-6-{(2R)-2-methyl-4-[3-(trifluoromethyl)pyridin-2-yl]piperazin-1-yl}pyrimidin-2-yl)morpholine], the IC50 was at most 1 µM.
Same read-out and setting: then `Fc1ccc(-c2cc(N3CCN(c4ncccc4C(F)(F)F)CC3)nc(OCCN3CCCC3)n2)cc1Cl` [Example 558, 4-(3-chloro-4-fluorophenyl)-2-(2-pyrrolidin-1-ylethoxy)-6-{4-[3-(trifluoromethyl)pyridin-2-yf]piperazin-1-yl}pyrimidine], with at most 1 µM.
The same measure, in the same setting: then `FC(F)(F)c1cccc(-c2nc(N3CCOCC3)nc(N3CCN(c4ncccc4C(F)(F)F)CC3)n2)c1` [Example 438, 2-morpholin-4-yl-4-[3-(trifluoromethyl)phenyl]-6-{4-[3-(trifluoromethyl)pyridin-2-yl]piperazin-1-yl}-1,3,5-triazine], with at most 1 µM; and `C[C@@H]1CN(c2ncccc2C#N)CCN1c1cc(-c2ccc(Cl)cc2)nc(N2CCOCC2)n1` [Example 482, 2-{(3R)-4-[6-(4-chlorophenyl)-2-morpholin-4-ylpyrimidin-4-yl]-3-methylpiperazin-1-yl}nicotinonitrile], with at most 1 µM; and `CSc1cccc(-c2cc(N3CCN(c4ncccc4Cl)C[C@H]3C)nc(N3CCOCC3)n2)c1` [Example 539, 4-{4-[(2R)-4-(3-chloropyridin-2-yl)-2-methylpiperazin-1-yl]-6-[3-(methylthio)phenyl]pyrimidin-2-yl}morpholine], with at most 1 µM.

Still in this assay, the particulars now being: Table II; IC50 determined as described in Example 6 (antagonist activity, calcium mobilization).
Consider `CNc1ccc(Cl)c(N2CCN(c3cc(-c4ccc(F)cc4)nc(N4CCCC4C)n3)[C@H](C)C2)n1` (some centres unmarked) [Example 1012, 5-chloro-6-{4-[6-(4-fiuorophenyl)-2-(2-methylpyrrolidin-1-yl)pyrimidin-4-yl]-3-methylpiperazin-1-yl}-N-methylpyridin-2-amine], for which the IC50 was at most 1 µM.
`Cc1ccc(-c2cc(N3CCN(c4nccnc4Cl)C[C@H]3C)nc(N3CCCC3)n2)cc1F` [Example 978, 4-[(2R)-4-(3-chloropyrazin-2-yl)-2-methylpiperazin-1-yl]-6-(3-fluoro-4-methylphenyl)-2-pyrrolidin-1-ylpyrimidine]: the IC50 is at most 1 µM.
Consider `C[C@@H]1CN(c2ncccc2Cl)CCN1c1cc(-c2ccc(F)c(Cl)c2)nc(N2CCC[C@@H]2C)n1` [Example 984, 4-(3-chloro-4-fluorophenyl)-6-[(2R)-4-(3-chloropyridin-2-yl)-2-methylpiperazin-1-yl]-2-[(2S)-2-methylpyrroiidin-1-yl]pyrimidine], for which the IC50 is at most 1 µM.

The same assay, now with this note: Table II; determined as described in Example 6 (antagonist activity); "*" = 1 micromolar or less.
For `Cc1ccc(-c2cc(N3CCN(c4ncccc4Cl)C[C@H]3C)nc(N3CCCC3C)n2)cc1F` (stereo partly drawn) [Example 803, 4-[(2R)-4-(3-chloropyridin-2-yl)-2-methylpiperazin-1-yl]-6-(3-fluoro-4-methylphenyl)-2-(2-methylpyrrolidin-1-yl)pyrimidine], the IC50 is at most 1 µM.
The same measure, in the same setting: then `Cc1cc(NS(C)(=O)=O)cnc1N1CCN(c2cc(-c3ccc(F)c(Cl)c3)nc(N3CCCC3C)n2)CC1` (centres unmarked) [Example 817, N-(6-{4-[6-(3-chloro-4-fluorophenyl)-2-(2-methylpyrrolidin-1-yl)pyrimidin-4-yl]piperazin-1-yl}-5-methylpyridin-3-yl)methanesulfonamide], with at most 1 µM.
`CC(=O)c1ccc(-c2cc(N3CCN(c4ncccc4Cl)C[C@H]3C)nc(N3CCCC3C)n2)cc1` (some centres unmarked) [Example 857, 1-{4-[6-[4-(3-chloropyridin-2-yl)-2-methylpiperazin-1-yl]-2-(2-methylpyrrolidin-1-yl)pyrimidin-4-yl]phenyl}ethanone]: the IC50 is at most 1 µM.
`C[C@@H]1CN(c2ncccc2Cl)CCN1c1cc(-c2ccc(F)cc2)nc(N2CCN3CCC[C@H]3C2)n1` [Example 890, (8aS)-2-[4-[(2R)-4-(3-chloropyridin-2-yl)-2-methylpiperazin-1-yl]-6-(4-fluorophenyl)pyrimidin-2-yl]octahydropyrrolo[1,2-a]pyrazine]: the half-maximal inhibitory concentration (IC50) is at most 1 µM.
Same read-out and setting: then `C[C@@H]1CN(c2ncccc2C(F)(F)F)CCN1c1cc(-c2ccc(F)cc2)nc(N2CCCCC2)n1` [Example 784, 4-(4-fluorophenyl)-6-{(2R)-2-methyl-4-[3-(trifluoromethyl)pyridin-2-yl]piperazin-1-yl}-2-piperidin-1-ylpyrimidine], with at most 1 µM.
Still for that read-out and setting: then `CC1CCCN1c1nc(-c2cncc(C#N)c2)cc(N2CCN(c3ncccc3Cl)C[C@H]2C)n1` (some centres unmarked) [Example 880, 5-[6-[4-(3-chloropyridin-2-yl)-2-methylpiperazin-1-yl]-2-(2-methylpyrrolidin-1-yl)pyrimidin-4-yl]nicotinonitrile], with at most 1 µM; and `COc1ccc(-c2cc(N3CCN(c4ncccc4Cl)C[C@H]3C)nc(N3CCCC3)n2)cc1C` [Example 809, 4-[(2R)-4-(3-chloropyridin-2-yl)-2-methylpiperazin-1-yl]-6-(4-methoxy-3-methylphenyl)-2-pyrrolidin-1-ylpyrimidine], with at most 1 µM; and `C[C@H]1CN(c2ncccc2Cl)CCN1c1cc(-c2ccc(Cl)c(F)c2)nc(Cl)n1` [Example 953, 2-chloro-4-(4-chloro-3-fluorophenyl)-6-[(2S)-4-(3-chloropyridin-2-yl)-2-methylpiperazin-1-yl]pyrimidine], with at most 1 µM.
Take `Cc1cc(-c2cc(N3CCN(c4ncccc4Cl)C[C@@H]3C)nc(N3CCOCC3)n2)ccc1F` [Example 904, 4-[4-[(2S)-4-(3-chloropyridin-2-yl)-2-methylpiperazin-1-yl]-6-(4-fluoro-3-methylphenyl)pyrimidin-2-yl]morpholine]: the IC50 was at most 1 µM.
As to `CCOC(=O)c1ccc(-c2cc(N3CCN(c4ncccc4Cl)C[C@H]3C)nc(N3CCCC3C)n2)cc1` (stereo in doubt) [Example 867, ethyl 4-[6-[4-(3-chloropyridin-2-yl)-2-methylpiperazin-1-yl]-2-(2-methylpyrrolidin-1-yl)pyrimidin-4-yl]benzoate], the IC50 was at most 1 µM.
Same read-out and setting: then `CCCN1CC[C@H](N(C)c2nc(-c3ccc(F)c(C)c3)cc(N3CCN(c4ncccc4C(F)(F)F)CC3)n2)C1` [Example 831, 4-(4-fluoro-3-methylphenyl)-N-methyl-N-[(3S)-1-propylpyrrolidin-3-yl]-6-{4-[3-(trifluoromethyl)pyridin-2-yl]piperazin-1-yl}pyrimidin-2-amine], with at most 1 µM.
Turning to `COC[C@@H]1CCCN1c1nc(-c2cncc(Cl)c2)cc(N2CCN(c3ncccc3Cl)C[C@H]2C)n1` [Example 854, 4-(5-chloropyridin-3-yl)-6-[(2R)-4-(3-chloropyridin-2-yl)-2-methylpiperazin-1-yl]-2-[(2S)-2-(methoxymethyl)pyrrolidin-1-yl]pyrimidine], the IC50 is at most 1 µM.

The same assay, now with this note: Table II; determined as described in Example 6; class symbol.
Regarding `Cc1cccc(-c2nc(N3CCCCCC3)nc(N3CCN(c4ncccc4C(F)(F)F)CC3)n2)c1` [Example 262, 1-(4-(3-methylphenyl)-6-{4-[3-(trifluoromethyl)pyridin-2-yl]piperazin-1-yl}-1,3,5-triazin-2-yl)azepane], the IC50 is at most 1 µM.
Same read-out and setting: then `Cc1ccc(F)cc1-c1nc(N2CCOCC2)nc(N2CCN(c3ccccn3)CC2)n1` [Example 272, 2-(5-fluoro-2-methylphenyl)-4-morpholin-4-yl-6-(4-pyridin-2-ylpiperazin-1-yl)-1,3,5-triazine], with at most 1 µM.
`CC(C)c1cccc(-c2nc(N3CCOCC3)nc(N3CCN(c4ccccn4)CC3)n2)c1` [Example 235, 2-(3-isopropylphenyl)-4-morpholin-4-yl-6-(4-pyridin-2-ylpiperazin-1-yl)-1,3,5-triazine]: the IC50 was at most 1 µM.

The same assay, now with this note: determined as described in Example 6 (calcium mobilization, antagonist activity); Table II.
`Cc1cc(-c2cc(N3CCN(c4ncccc4C(F)(F)F)CC3)nc(N3CCCC3C)n2)ccc1F` (centres unmarked) [Example 676, 4-(4-fluoro-3-methylphenyl)-2-(2-methylpyrrolidin-1-yl)-6-{4-[3-(trifluoromethyl)pyridin-2-yl]piperazin-1-yl}pyrimidine]: the IC50 is at most 1 µM.
Consider `Cc1cccnc1N1CCN(c2cc(-c3ccc(F)cc3)nc(N3CCCC3C)n2)CC1` (centres unmarked) [Example 702, 4-(4-fluorophenyl)-6-[4-(3-methylpyridin-2-yl)piperazin-1-yl]-2-(2-methylpyrrolidin-1-yl)pyrimidine], for which the IC50 was at most 1 µM.
Same read-out and setting: then `CC1CCCN1c1nc(-c2ccc(F)cc2)cc(N2CCN(c3ncccc3C(F)(F)F)CC2)n1` (centres unmarked) [Example 705, 4-(4-fluorophenyl)-2-(2-methylpyrrolidin-1-yl)-6-{4-[3-(trifluoromethyl)pyridin-2-yl]piperazin-1-yl}pyrimidine], with at most 1 µM; and `CS(=O)(=O)Nc1cccnc1N1CCN(c2cc(-c3ccc(F)c(Cl)c3)nc(N3CCOCC3)n2)CC1` [Example 588, N-(2-{4-[6-(3-chloro-4-fluorophenyl)-2-morpholin-4-ylpyrimidin-4-yl]piperazin-1-yl}pyridin-3-yl)methanesulfonamide], with at most 1 µM; and `OCCN1CCN(c2nc(-c3ccc(F)c(Cl)c3)cc(N3CCN(c4ncccc4C(F)(F)F)CC3)n2)CC1` [Example 750, 2-[4-(4-(3-chloro-4-fluorophenyl)-6-{4-[3-(trifluoromethyl)pyridin-2-yl]piperazin-1-yl}pyrimidin-2-yl)piperazin-1-yl]ethanol], with at most 1 µM.
`Cc1cccnc1N1CCN(c2cc(-c3ccc(F)c(Cl)c3)nc(N3CCOCC3)n2)CC1C` (centres unmarked) [Example 646, 4-{4-(3-chloro-4-fluorophenyi)-6-[3-methyl-4-(3-methylpyridin-2-yl)piperazin-1-yl]pyrimidin-2-yl}morpholine]: the IC50 was at most 1 µM.
